The results in this text go back to the NIST ThermoML archive (doi:10.1016/j.fluid.2008.01.010).

For data set [1] the following is noted: 298.15 K; 101.33 kPa; Liquid.
The nature of data set [2]: refractive index (Na D-line) (dimensionless). The settings on record: 298.15 K; 101.33 kPa; Liquid; Standard Abbe refractometry.

SMILES strings stand for the structures. Numbers after ± are expanded uncertainties.

What is called mass density is mass per unit of volume. As a reminder, the refractive index is the speed of light in vacuum divided by its phase velocity in the sample. Regarding `CC(C)CO` [2-methyl-1-propanol], in data set [1], the mass density came out at 797.83 ± 0.48 kg/m3. Besides, the refractive index in data set [2] is 1.3938 ± 0.0005.

As for `CC(=O)OCC(C)C` [2-methylpropyl ethanoate], the mass density in data set [1] worked out at 866.12 ± 0.67 kg/m3. Moreover, in data set [2], the refractive index is given as 1.3876 ± 0.0006.

As for `OCC(O)CO` [glycerol], the mass density in data set [1] is listed as 1258.5 ± 0.6 kg/m3. Further, in data set [2], the refractive index came out at 1.4726 ± 0.0005.
